Source: PubChem BioAssay (NCI)
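Grown in 96-well plates, cells were treated for 48 hours with each compound at five concentrations. Insufficient inhibition: endpoint recorded as highest concentration tested. GI50 marks 50% less growth. Definition used: TGI = concentration required for complete inhibition of growth.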

How the values were obtained:
Assay in all cases: NCI tumour cell line growth inhibition, 48 h
A498 renal = tested on: A498 renal
CAKI-1 renal = tested on: CAKI-1 renal
COLO 205 colon = tested on: COLO 205 colon
HOP-92 NSCLC = tested on: HOP-92 NSCLC
NCI-H23 lung = tested on: NCI-H23 lung
RXF 393 renal = tested on: RXF 393 renal
SK-MEL-5 melanoma = tested on: SK-MEL-5 melanoma
SW-620 colon = tested on: SW-620 colon
U251 CNS = tested on: U251 CNS
EKVX NSCLC = tested on: EKVX NSCLC

Row | Structure (SMILES) | GI50 (A498 renal) | TGI (A498 renal) | GI50 (CAKI-1 renal) | TGI (CAKI-1 renal) | GI50 (COLO 205 colon) | TGI (COLO 205 colon) | GI50 (HOP-92 NSCLC) | TGI (HOP-92 NSCLC) | GI50 (NCI-H23 lung) | TGI (NCI-H23 lung) | GI50 (RXF 393 renal) | TGI (RXF 393 renal) | GI50 (SK-MEL-5 melanoma) | TGI (SK-MEL-5 melanoma) | GI50 (SW-620 colon) | TGI (SW-620 colon) | GI50 (U251 CNS) | TGI (U251 CNS) | TGI (EKVX NSCLC) | GI50 (EKVX NSCLC)
1 | Nc1[nH]nc2nc(-c3cccs3)cc(C(F)(F)F)c12 | > 23700 nM | > 25 µM | > 20300 nM | > 25 µM | > 25000 nM | > 25 µM | > 14100 nM | > 25 µM | > 25000 nM | > 25 µM | 18.9 µM | > 25 µM | > 25000 nM | > 25 µM | > 25000 nM | > 25 µM | > 23700 nM | > 25 µM |  | 
2 | COc1cc(C(=O)NC2CCN(C)CC2)c(F)cc1Nc1ncc2c(n1)N(C1CCCC1)CC(F)(F)C(=O)N2C | < 19.6 nM | 0.14 µM | < 24.3 nM | 3.71 µM | < 10 nM | 0.177 µM | 32.6 nM | 0.391 µM | < 18.2 nM | 3.4 µM | < 0.0169 µM | 15.2 µM | < 22 nM | 2.32 µM | < 10 nM | 11.5 µM | < 20.4 nM | 14.5 µM |  | 
3 | Cc1ccc(Nc2nc(C)c(C(/C=C/c3ccc(/C=C/C(=N/NC(=O)C[n+]4ccccc4)c4sc(Nc5ccc(C)cc5[N+](=O)[O-])nc4C)cc3)=N\NC(=O)C[n+]3ccccc3)s2)c([N+](=O)[O-])c1 |  |  |  | > 100 µM |  | > 100 µM |  |  |  | > 100 µM |  | > 100 µM |  |  |  | > 100 µM |  | > 100 µM | > 100 µM | 
4 | CCSCCCN(CCCSCC)CCCSCC |  |  |  |  |  | > 100 µM |  | 80.4 µM |  | > 100 µM |  |  |  | > 100 µM |  | > 100 µM |  | > 100 µM |  | 
5 | CCCOC(=O)N1CCN(/[N+]([O-])=N/Oc2ccc([N+](=O)[O-])cc2[N+](=O)[O-])CC1 |  |  | 2160 nM | 5.04 µM | 2590 nM | 6.21 µM |  |  | 2250 nM | 5.34 µM | 8.67 µM | 23.8 µM | 2350 nM | 7.53 µM |  |  | 2030 nM | 3.96 µM | 7.79 µM | 2640 nM
6 | O=[N+]([O-])c1cccc([As]=[As]c2cccc([N+](=O)[O-])c2)c1 (centres undefined) | 83.5 nM | 0.231 µM | 137 nM | 0.281 µM | 66.3 nM | 0.18 µM | 43.3 nM | 0.173 µM | 182 nM | 0.384 µM | 0.0898 µM | 0.23 µM | 162 nM | 0.324 µM | 46 nM | 0.195 µM | 103 nM | 0.22 µM |  | 
7 | C/C=C(/COC(C)=O)C(=O)OC1C=C(C=O)C(C)(C)C=C1C (centres undefined) |  | > 100 µM |  | > 100 µM |  | > 100 µM |  | > 100 µM |  | > 100 µM |  |  |  | > 100 µM |  | > 100 µM |  | > 100 µM | > 100 µM | 
8 | C[Si](C)(C)c1ccc(-c2sc(-c3ccc([Si](C)(C)C)s3)c3c2C[Si]2(C3)Cc3c(-c4ccc([Si](C)(C)C)s4)sc(-c4ccc([Si](C)(C)C)s4)c3C2)s1 |  |  |  | > 100 µM |  | > 100 µM |  | > 100 µM |  | > 100 µM |  | > 100 µM |  | > 100 µM |  | > 100 µM |  | > 100 µM |  | 
9 | Cc1[nH]c2ccccc2c1C1Cc2ccccc2N1C(=O)/C=C/C(=O)O (centres undefined) |  | > 100 µM |  | > 100 µM |  | > 100 µM |  |  |  | > 100 µM |  | > 100 µM |  | > 100 µM |  | > 100 µM |  | > 100 µM | > 100 µM | 
10 | Cc1ccc(C)c(NC(=O)CC/C(=N\NC(=O)c2c(O)ccc3ccccc23)C(C)C(=O)c2ccc(O)cc2)c1 (centres undefined) |  | > 100 µM |  | > 100 µM |  | 51.3 µM |  | > 100 µM |  | 91.3 µM |  | > 100 µM |  | > 100 µM |  | > 100 µM |  | > 100 µM |  | 
11 | CC#CC(=O)SCCNC(=O)CC |  | > 10 µM |  | > 10 µM |  | > 10 µM |  |  |  | > 10 µM |  | > 9.55 µM |  | > 10 µM |  | > 10 µM |  | > 10 µM | > 10 µM | 
12 | COC(=O)CCC(NC(=S)N/N=C/c1ccco1)C(=O)OC (centres undefined) |  | > 100 µM |  |  |  | > 100 µM |  |  |  | > 100 µM |  | > 100 µM |  | > 100 µM |  | > 100 µM |  | > 100 µM | > 100 µM | 
13 | COc1ccc(C(=O)C(c2ccc(OC)cc2)C2(O)C(=O)Nc3c2ccc(Cl)c3C)cc1 (centres undefined) |  | > 100 µM |  |  |  | > 100 µM |  |  |  | > 100 µM |  | > 100 µM |  | > 100 µM |  | > 100 µM |  | > 100 µM | > 100 µM | 
14 | COc1ccc(OC)c2c1C(=O)C1CC1(Br)C2=O (centres undefined) |  | > 100 µM |  | > 100 µM |  | > 100 µM |  |  |  | > 100 µM |  |  |  | > 100 µM |  | > 100 µM |  | > 100 µM | > 100 µM | 
